# Measured values published in patent US20240140958A1, “FUSED QUADRACYCLIC COMPOUNDS, COMPOSITIONS AND USES THEREOF” (Tabomedex Biosciences, Inc., priority 2021, published 2024).
# Legend:
# [1] = system: THP-1 cells; test: THP-1 cell assay: LPS-stimulated pSer78-Hsp27 ELISA; type: cell-based; conditions: Homo sapiens, PMA-differentiated THP-1 cells, compound 60 min before 20 ng/mL LPS for 30 min
# From the text: Materials and Reagents for Measuring Activity in THP-1 Cells: • 1) THP-1 cells (Cell bank of Shanghai) • 2) PMA (Sigma, Cat.No. P1585) • 3) LPS (Sigma, Cat.No. L4516) • 4) 96-well tissue-culture treated plate (Grenier, Cat.No. 655180) • 5) FBS (Thermofisher, Cat.No. 10100147) • 6) Complete EDTA-free protease inhibitor Cocktail (Roche, Cat.No. 4693132001) • 7) PhosSTOP (Roche, Cat.No. 4906845001) • 8) Phosphor-Hsp27 (Ser78) Sandwich Elisa kit (CST, Cat.No. 7295)
# Cell Assay Procedure: • 1) Day 0: THP-1 cells are seeded at 50K/well in complete media (1640+10% FBS+50 μM β-ME)+20 ng/mL PMA in 96-well plate • 2) Day 1: PMA containing media is removed after 24 h incubation (37° C./5% CO2), and replaced with complete growth media. Cells are incubated an additional 48 h to recover. • 3) Day 3: Cells are incubated with or without compounds at indicated concentrations for 60 min, prior to addition of 20 ng/mL LPS. Cells are stimulated for 30 min with LPS, washed 1× with ice cold PBS, lysed on ice in Lysis buffer provided in ELISA kit with Roche protease & phosphatase inhibitors. Extracts are clarified by refrigerated centrifugation & stored at −80° C. until pHsp27/total Hsp27 ELISAs • 4) Day 3 or Day 4: Cell Signaling Technology ELISA is run for pSer78-Hsp27 on lysates diluted to approximately 2.5 μg/well. • 5) The absorbance at 450 nm was read in a SpectraMax plus plate reader (Molecular Devices). Data was processed using GraphPad prism 8.0.
# [2] = target: T1, MAPKAPK2 Recombinant Human Protein (Homo sapiens, UniProt P49137); test: MK2 kinase assay (Z'-LYTE kinase assay kit); conditions: inhibition of MK2 biochemical activity; 90 min incubation at room temperature
# T1 construct: purchased ThermoFisher pv3317
# Protocol: Materials and Reagents for Measuring Inhibition of MK2 Biochemical Activity: • 1) Assay plate: 384 Well Low Volume Black Round Bottom Polystyrene NBS Microplate (Corning, Cat.No. 4514) • 2) MK2 kinase assay kit: Z' LYTE KINASE ASSAY KIT (ThermoFisher, Cat.No. pv3177) • 3) MAPKAPK2 Recombinant Human Protein (ThermoFisher, Cat.No. pv3317) • 4) DMSO (Vetec, Cat.No. V900090) • 5) DTT (Sigma, Cat.No. D0632)
# MK2 Kinase Assay Procedure: • 1) Dispense 5 μl Kinase/Peptide Mixture to each wells of 384-well plate • 2) Add 2.5 μl 4× Test Compound to each well • 3) Add 2.5 μl 4× ATP Solution to each well • 4) After 90 minutes incubation at room temperature, add 5 μl Development Solution to each well • 5) After 60 minutes incubation at room temperature, add 5 μl stop Solution to each well • 6) Measure the Coumarin (Ex. 400 nm, Em. 445 nm) and Fluorescein (Ex. 400 nm, Em. 520 nm) emission signals on an Envision plate reader (PerkinElmer)
# T1 sequence (P49137 whole entry): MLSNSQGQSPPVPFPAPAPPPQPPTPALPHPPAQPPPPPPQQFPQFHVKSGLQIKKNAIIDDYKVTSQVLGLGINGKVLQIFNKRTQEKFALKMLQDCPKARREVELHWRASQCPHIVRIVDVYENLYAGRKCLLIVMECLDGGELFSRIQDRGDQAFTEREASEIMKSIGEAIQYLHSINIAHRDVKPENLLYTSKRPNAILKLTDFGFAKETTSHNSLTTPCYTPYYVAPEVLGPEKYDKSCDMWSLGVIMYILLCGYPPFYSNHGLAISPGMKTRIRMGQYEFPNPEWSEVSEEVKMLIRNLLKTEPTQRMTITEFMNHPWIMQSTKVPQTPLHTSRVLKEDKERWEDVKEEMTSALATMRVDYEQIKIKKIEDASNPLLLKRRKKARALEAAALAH
Structure (SMILES),IC50 [1],IC50 [2]
"[2H]C([2H])([2H])N(C[C@@H]1CCN1C(=O)c1ccc2c(c1)Cn1cc(-c3ccc(C#N)cc3)cc1-c1nccn1-2)C([2H])([2H])[2H] [Example 120, (S)-4-(7-(2-((Bis(methyl-d3)amino)methyl)azetidine-1-carbonyl)-9H-benzo[e]imidazo[2,1-c]pyrrolo[1,2-a][1,4]diazepin-12-yl)benzonitrile]",< 50 nM,–
"CC(C)N1CCC(C(=O)Nc2ccc3c(c2)Cn2cc(-c4ccc(C#N)cc4)cc2-c2nccn2-3)C1 (centres unmarked) [Example 77, N-(12-(4-Cyanophenyl)-9H-benzo[e]imidazo[2,1-c]pyrrolo[1,2-a][1,4]diazepin-7-yl)-1-isopropylpyrrolidine-3-carboxamide]",100 to 200 nM,50 to 100 nM
N#Cc1ccc(-c2cc3n(c2)Cc2cc(C(=O)N4CC(C#N)C4)ccc2-n2ccnc2-3)cc1 [Example 110],50 to 100 nM,< 50 nM
"CN(C)CC1CCN(c2ccc3c(c2)Cn2cc(-c4ccc(C#N)cc4)cc2-c2nccn2-3)C1=O (centres unmarked) [Example 34, 4-(7-(3-((Dimethylamino)methyl)-2-oxopyrrolidin-1-yl)-9H-benzo[e]imidazo [2,1-c]pyrrolo[1,2-a][1,4]diazepin-12-yl)benzonitrile]",< 50 nM,< 50 nM
"CN(C)C[C@H]1CC(=O)N(c2ccc3c(c2)Cn2cc(-c4ccc(C#N)cc4)cc2-c2nccn2-3)C1 [Example 7, (R)-4-(7-(4-((Dimethylamino)methyl)-2-oxopyrrolidin-1-yl)-9H-benzo[e]imidazo[2,1-c]pyrrolo[1,2-a][1,4]diazepin-12-yl)benzonitrile]",< 50 nM,< 50 nM
CN1CC2(C1)CN(C(=O)c1ccc3c(c1)Cn1cc(-c4ccc(C#N)cc4)cc1-c1nccn1-3)C2 [Example 109],200 to 300 nM,50 to 100 nM
CC(C)(C)NC[C@H]1CC(=O)N(c2ccc3c(c2)Cn2cc(-c4ccc(C#N)cc4)cc2-c2nccn2-3)C1 [Example 13],100 to 200 nM,< 50 nM
CN(CCO)C[C@H]1CC(=O)N(c2ccc3c(c2)Cn2cc(-c4ccc(C#N)cc4)cc2-c2nccn2-3)C1 [Example 11],100 to 200 nM,50 to 100 nM
"CN1CC(n2ccn(-c3ccc4c(c3)Cn3cc(-c5ccc(C#N)cc5)cc3-c3nccn3-4)c2=O)C1 [Example 71, 4-(7-(3-(1-Methylazetidin-3-yl)-2-oxo-2,3-dihydro-1H-imidazol-1-yl)-9H-benzo[e]imidazo[2,1-c]pyrrolo[1,2-a][1,4]diazepin-12-yl)benzonitrile]",200 to 300 nM,50 to 100 nM
"CN1CC2(CC(=O)N(c3ccc4c(c3)Cn3cc(-c5ccc(C#N)cc5)cc3-c3nccn3-4)C2)C1 [Example 23, 4-(7-(2-Methyl-7-oxo-2,6-diazaspiro[3.4]octan-6-yl)-9H-benzo[e]imidazo [2,1-c]pyrrolo[1,2-a][1,4]diazepin-12-yl)benzonitrile]",200 to 300 nM,< 50 nM
"CN(C)C[C@H]1C[C@@]12CCN(c1ccc3c(c1)Cn1cc(-c4ccc(C#N)cc4)cc1-c1nccn1-3)C2=O [Example 48, 4-(7-((1S,3R)-1-((dimethylamino)methyl)-4-oxo-5-azaspiro[2.4]heptan-5-yl)-9H-benzo[e]imidazo[2,1-c]pyrrolo[1,2-a][1,4]diazepin-12-yl)benzonitrile]",200 to 300 nM,50 to 100 nM
"CN(C)C[C@@H]1CCN(c2ccc3c(c2)Cn2cc(-c4ccc(C#N)cc4)cc2-c2nccn2-3)C1=O (single isomer, unassigned) [Example 36]",< 50 nM,< 50 nM
CN(C)CC1CC(=O)N(c2cc3c(cc2F)-n2ccnc2-c2cc(-c4ccc(C#N)cc4)cn2C3)C1 (stereo in doubt) [Example 91],300 to 400 nM,50 to 100 nM
N#Cc1ccc(-c2cc3n(c2)Cc2cc(N4C[C@@H](CNC5(CO)CC5)CC4=O)ccc2-n2ccnc2-3)cc1 [Example 16],400 to 500 nM,50 to 100 nM
"CC(C)(N)C[C@H]1CCN(c2ccc3c(c2)Cn2cc(-c4ccc(C#N)cc4)cc2-c2nccn2-3)C1=O [Example 43, (R)-4-(7-(3-(2-Amino-2-methylpropyl)-2-oxopyrrolidin-1-yl)-9H-benzo[e]imidazo[2,1-c]pyrrolo[1,2-a][1,4]diazepin-12-yl)benzonitrile]",300 to 400 nM,< 50 nM
"[2H]C([2H])([2H])N(CC1CCN(c2ccc3c(c2)Cn2cc(-c4ccc(C#N)cc4)cc2-c2nnc(C)n2-3)C1=O)C([2H])([2H])[2H] (centres unmarked) [Example 86, 4-(7-(3-((Bis(methyl-d3)amino)methyl)-2-oxopyrrolidin-1-yl)-3-methyl-9H-benzo [e]pyrrolo[1,2-a][1,2,4]triazolo[3,4-c][1,4]diazepin-12-yl)benzonitrile]",300 to 400 nM,< 50 nM

Structure (SMILES),IC50 [1],IC50 [2]
CN(C)C1CCN(C(=O)Nc2ccc3c(c2)Cn2cc(-c4ccc(C#N)cc4)cc2-c2nccn2-3)C1 (centres unmarked) [Example 72],< 50 nM,< 50 nM
N#Cc1ccc(-c2cc3n(c2)Cc2cc(N4C[C@@H](CNC5COC5)CC4=O)ccc2-n2ccnc2-3)cc1 [Example 14],100 to 200 nM,50 to 100 nM
CC(C)(N)CN1C(=O)CN(c2ccc3c(c2)Cn2cc(-c4ccc(C#N)cc4)cc2-c2nccn2-3)C1=O [Example 68],< 50 nM,< 50 nM
N#Cc1ccc(-c2cc3n(c2)Cc2cc(N4C[C@@H](C5(N)CC5)CC4=O)ccc2-n2ccnc2-3)cc1 [Example 50],50 to 100 nM,< 50 nM
"CN(C)CCN1C(=O)CN(c2ccc3c(c2)Cn2cc(-c4ccc(C#N)cc4)cc2-c2nccn2-3)C1=O [Example 75, 4-(7-(3-(2-(Dimethylamino)ethyl)-2,4-dioxoimidazolidin-1-yl)-9H-benzo[e]imidazo[2,1-c]pyrrolo[1,2-a][1,4]diazepin-12-yl)benzonitrile]",< 50 nM,< 50 nM
CN(C)C[C@H]1CCN1C(=O)c1ccc2c(c1)Cn1cc(-c3ccc(C#N)cc3)cc1-c1nccn1-2 [Example 115],200 to 300 nM,< 50 nM
"CN1CC(C)(CN2C(=O)CN(c3ccc4c(c3)Cn3cc(-c5ccc(C#N)cc5)cc3-c3nccn3-4)C2=O)C1 [Example 65, 4-(7-(3-((1,3-Dimethylazetidin-3-yl)methyl)-2,4-dioxoimidazolidin-1-yl)-9H-benzo[e]imidazo[2,1-c]pyrrolo[1,2-a][1,4]diazepin-12-yl)benzonitrile]",< 50 nM,< 50 nM
"CNC[C@@H]1CCN1C(=O)c1ccc2c(c1)Cn1cc(-c3ccc(C#N)cc3)cc1-c1nccn1-2 [Example 137, (S)-4-(7-(2-((Methylamino)methyl)azetidine-1-carbonyl)-9H-benzo[e]imidazo [2,1-c]pyrrolo[1,2-a][1,4]diazepin-12-yl)benzonitrile]",200 to 300 nM,–
"CC1(CN2C(=O)CN(c3ccc4c(c3)Cn3cc(-c5ccc(C#N)cc5)cc3-c3nccn3-4)C2=O)CNC1 [Example 64, 4-(7-(3-((3-Methylazetidin-3-yl)methyl)-2,4-dioxoimidazolidin-1-yl)-9H-benzo[e]imidazo[2,1-c]pyrrolo[1,2-a][1,4]diazepin-12-yl)benzonitrile]",–,< 50 nM
Cc1nnc2n1-c1ccc(N3C[C@@H](CN(C)C)OC3=O)cc1Cn1cc(-c3ccc(C#N)cc3)cc1-2 [Example 83],–,50 to 100 nM
Cc1nnc2n1-c1ccc(N3CCC(CN(C)C)C3=O)cc1Cn1cc(-c3ccc(C#N)cc3)cc1-2 (centres unmarked) [Example 84],–,50 to 100 nM
CN(C)[C@@H]1CC[C@@H](NC(=O)c2ccc3c(c2)Cn2cc(-c4ccc(C#N)cc4)cc2-c2nccn2-3)C1 [Example 123],–,300 to 400 nM
CN1CC(C)(NC(=O)c2ccc3c(c2)Cn2cc(-c4ccc(C#N)cc4)cc2-c2nccn2-3)C1 [Example 129],–,100 to 200 nM
"N#Cc1ccc(-c2cc3n(c2)Cc2cc(N4C[C@@H](N)CC4=O)ccc2-n2ccnc2-3)cc1 [Example 32, (S)-4-(7-(4-Amino-2-oxopyrrolidin-1-yl)-9H-benzo[e]imidazo[2,1-c]pyrrolo [1,2-a][1,4]diazepin-12-yl)benzonitrile]",–,50 to 100 nM
CN(CC1CNC1)C(=O)c1ccc2c(c1)Cn1cc(-c3ccc(C#N)cc3)cc1-c1nccn1-2 [Example 135],–,100 to 200 nM
